PubChem BioAssay (NCI)
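Where inhibition never reached the appropriate level, the endpoint shown equals the highest concentration tested. Otherwise, values were interpolated linearly from a five-concentration, 48-hour dose response in 96-well plates. The concentration for 50% growth inhibition is given as GI50. TGI marks complete inhibition of growth.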

Tests used:
Experiment in all cases: NCI tumour cell line growth inhibition, 48 h
[1] = tested on: 786-0 renal
[2] = tested on: A498 renal
[3] = tested on: A549 NSCLC
[4] = tested on: ACHN renal
[5] = tested on: CAKI-1 renal
[6] = tested on: CCRF-CEM leukemia
[7] = tested on: COLO 205 colon
[8] = tested on: DLD-1 colon
[9] = tested on: DMS 114 small cell lung
[10] = tested on: DMS 273 small cell lung
[11] = tested on: EKVX NSCLC
[12] = tested on: HCC-2998 colon
[13] = tested on: HCT-116 colon
[14] = tested on: HCT-15 colon
[15] = tested on: HL-60(TB) leukemia
[16] = tested on: HOP-62 NSCLC
[17] = tested on: HOP-92 NSCLC
[18] = tested on: HT29 colon
[19] = tested on: IGROV1 ovarian
[20] = tested on: K-562 leukemia
[21] = tested on: KM12 colon
[22] = tested on: KM20L2 colon
[23] = tested on: LXFL 529 NSCLC
[24] = tested on: M14 melanoma
[25] = tested on: M19-MEL melanoma
[26] = tested on: MALME-3M melanoma
[27] = tested on: MOLT-4 leukemia
[28] = tested on: NCI-H226 lung
[29] = tested on: NCI-H23 lung
[30] = tested on: NCI-H460 lung
[31] = tested on: NCI-H522 lung
[32] = tested on: OVCAR-3 ovarian
[33] = tested on: OVCAR-4 ovarian
[34] = tested on: OVCAR-5 ovarian
[35] = tested on: OVCAR-8 ovarian
[36] = tested on: RPMI-8226 leukemia
[37] = tested on: RXF-631 renal
[38] = tested on: SF-295 CNS
[39] = tested on: SF-539 CNS
[40] = tested on: SK-MEL-2 melanoma
[41] = tested on: SK-MEL-28 melanoma
[42] = tested on: SK-MEL-5 melanoma
[43] = tested on: SK-OV-3 ovarian
[44] = tested on: SN12C renal
[45] = tested on: SNB-19 CNS
[46] = tested on: SNB-75 CNS
[47] = tested on: SW-620 colon
[48] = tested on: TK-10 renal
[49] = tested on: U251 CNS
[50] = tested on: UACC-257 melanoma
[51] = tested on: UACC-62 melanoma
[52] = tested on: UO-31 renal
[53] = tested on: XF 498 CNS
[54] = tested on: LOX IMVI melanoma
[55] = tested on: RXF 393 renal
[56] = tested on: SF-268 CNS
[57] = tested on: SNB-78 CNS
[58] = tested on: SR leukemia

Work on `CC(C)OP(=O)(OC(C)C)C([CH2][Sn]([CH3])([CH3])[Cl])P(=O)(OC(C)C)OC(C)C` yielded a GI50 [1] of 16.7 µM, a TGI [1] of 33.1 µM and a GI50 [2] of 19.3 µM. For the same compound, the TGI [2] was greater than 100 µM, the GI50 [3] was 27.7 µM and the TGI [3] was greater than 100 µM. For the same compound, the GI50 [4] was 31 µM, the TGI [4] was greater than 100 µM and the GI50 [5] was 19.9 µM. For the same compound, the TGI [5] was 55.7 µM, the GI50 [6] was 20.7 µM and the TGI [6] was 64.9 µM. The GI50 [7] was 15.2 µM, the TGI [7] was 29.1 µM and the GI50 [8] was 36.8 µM. The TGI [8] was greater than 100 µM, the GI50 [9] was 21.9 µM and the TGI [9] was 67 µM. It also gave a GI50 [10] of 19.8 µM, a TGI [10] of 53.5 µM and a GI50 [11] of 30.3 µM. For the same compound, the TGI [11] was 98 µM, the GI50 [12] was 22.6 µM and the TGI [12] was 40.3 µM. The GI50 [13] was 19.7 µM, the TGI [13] was 42.8 µM and the GI50 [14] was 20.2 µM. The TGI [14] was 47.4 µM, the GI50 [15] was 4.56 µM and the TGI [15] was 18.2 µM. The GI50 [16] was 20.9 µM, the TGI [16] was 40.4 µM and the GI50 [17] was 13.7 µM. It also gave a TGI [17] of 34.4 µM, a GI50 [18] of 22.1 µM and a TGI [18] of 79.2 µM. The GI50 [19] was 24.5 µM, the TGI [19] was 97.4 µM and the GI50 [20] was 25.3 µM. For the same compound, the TGI [20] was greater than 100 µM, the GI50 [21] was 13.4 µM and the TGI [21] was 41.9 µM. It also gave a GI50 [22] of 17.5 µM, a TGI [22] of 34.6 µM and a GI50 [23] of 15 µM. It also gave a TGI [23] of 29.4 µM, a GI50 [24] of 16.4 µM and a TGI [24] of 31.4 µM. The GI50 [25] was 19.8 µM, the TGI [25] was 49.9 µM and the GI50 [26] was 16.3 µM. It also gave a TGI [26] of 33.2 µM, a GI50 [27] of 18.2 µM and a TGI [27] of 46.2 µM. For the same compound, the GI50 [28] was 21.2 µM, the TGI [28] was 41.3 µM and the GI50 [29] was 18.1 µM. For the same compound, the TGI [29] was 44.3 µM, the GI50 [30] was 16 µM and the TGI [30] was 36.3 µM. The GI50 [31] was 6.6 µM, the TGI [31] was 23.5 µM and the GI50 [32] was 20.2 µM. The TGI [32] was 72.5 µM, the GI50 [33] was 26.8 µM and the TGI [33] was greater than 100 µM. The GI50 [34] was 31.5 µM, the TGI [34] was greater than 100 µM and the GI50 [35] was 30.2 µM. The TGI [35] was greater than 100 µM, the GI50 [36] was 15.2 µM and the TGI [36] was 35.1 µM. The GI50 [37] was 38.3 µM, the TGI [37] was greater than 100 µM and the GI50 [38] was 19.7 µM. It also gave a TGI [38] of 48.7 µM, a GI50 [39] of 24.2 µM and a TGI [39] of 51.5 µM. The GI50 [40] was 15.6 µM, the TGI [40] was 29.9 µM and the GI50 [41] was 21.3 µM. It also gave a TGI [41] of 74.9 µM, a GI50 [42] of 16.5 µM and a TGI [42] of 31 µM. For the same compound, the GI50 [43] was 25.5 µM, the TGI [43] was 64 µM and the GI50 [44] was 27.9 µM. The TGI [44] was greater than 100 µM, the GI50 [45] was 30.2 µM and the TGI [45] was 86.9 µM. It also gave a GI50 [46] of 19.3 µM, a TGI [46] of 43.3 µM and a GI50 [47] of 20.2 µM. For the same compound, the TGI [47] was 42.5 µM, the GI50 [48] was 23.2 µM and the TGI [48] was 69.9 µM. For the same compound, the GI50 [49] was 20.4 µM, the TGI [49] was 46.3 µM and the GI50 [50] was 21.3 µM. For the same compound, the TGI [50] was 65.3 µM, the GI50 [51] was 14.1 µM and the TGI [51] was 32.9 µM. It also gave a GI50 [52] of 19.9 µM, a TGI [52] of 43.2 µM and a GI50 [53] of 14.5 µM. It also gave a TGI [53] of 35.1 µM.
Work on `CCCCCCCCCCCc1noc2c1C(=O)C(O)CC2` (centres undefined) yielded a TGI [1] of 34.1 µM, a TGI [2] of 88.5 µM and a TGI [3] of 55 µM. The TGI [4] was greater than 100 µM, the TGI [5] was greater than 100 µM and the TGI [6] was 64.9 µM. For the same compound, the TGI [7] was 83 µM, the TGI [10] was 30.4 µM and the TGI [11] was greater than 100 µM. It also gave a TGI [13] of 41.6 µM, a TGI [14] of 43.7 µM and a TGI [15] of 65.5 µM. It also gave a TGI [16] greater than 100 µM, a TGI [17] of 42.8 µM and a TGI [18] of 33.2 µM. It also gave a TGI [19] greater than 100 µM, a TGI [20] of 42.8 µM and a TGI [21] of 57.1 µM. The TGI [22] was 31.8 µM, the TGI [54] was 34.4 µM and the TGI [23] was 33.1 µM. For the same compound, the TGI [24] was 94.6 µM, the TGI [27] was 65.7 µM and the TGI [28] was 35.9 µM. The TGI [29] was 31.9 µM, the TGI [30] was 37.7 µM and the TGI [31] was 40 µM. It also gave a TGI [32] of 34.3 µM, a TGI [33] of 33 µM and a TGI [34] of 42.6 µM. It also gave a TGI [35] of 35.8 µM, a TGI [36] of 67.7 µM and a TGI [55] of 27.5 µM. For the same compound, the TGI [37] was 36.7 µM, the TGI [56] was greater than 100 µM and the TGI [38] was 39.6 µM. It also gave a TGI [39] of 54.7 µM, a TGI [40] of 38.7 µM and a TGI [41] of 75.2 µM. For the same compound, the TGI [42] was 30.2 µM, the TGI [43] was 94.8 µM and the TGI [44] was 30.4 µM. For the same compound, the TGI [45] was 67.2 µM, the TGI [46] was 84.5 µM and the TGI [57] was 65.1 µM. It also gave a TGI [58] of 78 µM, a TGI [47] of 35.6 µM and a TGI [48] greater than 100 µM. For the same compound, the TGI [49] was 28.3 µM, the TGI [50] was 42.3 µM and the TGI [51] was 33.8 µM. The TGI [52] was 71.2 µM and the TGI [53] was 27 µM.
